The results in this text go back to US20110218217A1, “PIPERIDYLPROPIONAMIDE DERIVATIVES USEFUL FOR THE TREATMENT OF CNS DISORDERS INCLUDING DEPRESSION AND PANIC DISORDER” (NEUROSEARCH A/S, priority 2008, published 2011).

What all share (format): biochemical
The target of assay [1] is T1, reuptake of noradrenaline (NA) in synaptosomes (Rattus norvegicus, UniProt Q63380).
T1 construct: in synaptosomes as described in WO 97/16451 (NeuroSearch A/S); from tissue
The experiment in a line: Inhibition of NA reuptake in synaptosomes. As for the experimental part:
(§1) Compounds were tested for their ability to inhibit the reuptake of the monoamine neurotransmitters dopamine (DA) noradrenaline (NA) and serotonine (5-HT) in synaptosomes as described in WO 97/16451 (NeuroSearch A/S).
(§2) The test values are given as IC50 (the concentration (μM) of the test substance which inhibits the specific binding of ^3H-DA, ^3H-NA, or ^3H-5-HT by 50%).

Assay [2] deals with T2, reuptake of serotonine (5-HT) in synaptosomes (Rattus norvegicus, UniProt P31652).
T2 construct: in synaptosomes as described in WO 97/16451 (NeuroSearch A/S); from tissue
The experiment in a line: Inhibition of 5-HT reuptake in synaptosomes. The settings on record: 3H-5-HT, read-out: 5-HT-uptake IC50. Here is the method:
as §1, §2

Assay [3] has as its target T3, reuptake of dopamine (DA) in synaptosomes (Rattus norvegicus, UniProt P23977).
T3 construct: in synaptosomes as described in WO 97/16451 (NeuroSearch A/S); from tissue
The experiment in a line: Inhibition of DA reuptake in synaptosomes. Here is the method:
as §1, §2

The mark [4] stands for this setting: 3H-NA, synaptosomes, read-out: NA-uptake IC50.
[5] abbreviates: 3H-DA, synaptosomes, read-out: DA-uptake IC50.

Read-outs that look alike come from different tables or passages of the source.

T2 sequence (P31652 whole entry): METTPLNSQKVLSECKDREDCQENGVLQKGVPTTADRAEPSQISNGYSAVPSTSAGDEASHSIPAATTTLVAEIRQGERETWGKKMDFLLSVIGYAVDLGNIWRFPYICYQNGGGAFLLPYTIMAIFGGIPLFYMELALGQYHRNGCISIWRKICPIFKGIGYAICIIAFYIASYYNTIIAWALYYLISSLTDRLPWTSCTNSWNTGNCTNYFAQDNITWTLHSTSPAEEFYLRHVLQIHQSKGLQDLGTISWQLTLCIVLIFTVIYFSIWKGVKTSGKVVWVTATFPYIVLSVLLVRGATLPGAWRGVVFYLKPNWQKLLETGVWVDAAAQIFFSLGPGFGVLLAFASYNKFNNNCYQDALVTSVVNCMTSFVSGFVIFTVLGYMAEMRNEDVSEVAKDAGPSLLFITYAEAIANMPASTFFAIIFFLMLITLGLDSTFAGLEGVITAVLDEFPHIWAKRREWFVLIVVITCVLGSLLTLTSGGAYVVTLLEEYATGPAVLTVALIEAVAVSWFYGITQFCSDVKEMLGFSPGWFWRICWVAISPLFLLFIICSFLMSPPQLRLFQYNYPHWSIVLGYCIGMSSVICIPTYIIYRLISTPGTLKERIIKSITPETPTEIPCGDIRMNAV
T3 sequence (P23977 whole entry): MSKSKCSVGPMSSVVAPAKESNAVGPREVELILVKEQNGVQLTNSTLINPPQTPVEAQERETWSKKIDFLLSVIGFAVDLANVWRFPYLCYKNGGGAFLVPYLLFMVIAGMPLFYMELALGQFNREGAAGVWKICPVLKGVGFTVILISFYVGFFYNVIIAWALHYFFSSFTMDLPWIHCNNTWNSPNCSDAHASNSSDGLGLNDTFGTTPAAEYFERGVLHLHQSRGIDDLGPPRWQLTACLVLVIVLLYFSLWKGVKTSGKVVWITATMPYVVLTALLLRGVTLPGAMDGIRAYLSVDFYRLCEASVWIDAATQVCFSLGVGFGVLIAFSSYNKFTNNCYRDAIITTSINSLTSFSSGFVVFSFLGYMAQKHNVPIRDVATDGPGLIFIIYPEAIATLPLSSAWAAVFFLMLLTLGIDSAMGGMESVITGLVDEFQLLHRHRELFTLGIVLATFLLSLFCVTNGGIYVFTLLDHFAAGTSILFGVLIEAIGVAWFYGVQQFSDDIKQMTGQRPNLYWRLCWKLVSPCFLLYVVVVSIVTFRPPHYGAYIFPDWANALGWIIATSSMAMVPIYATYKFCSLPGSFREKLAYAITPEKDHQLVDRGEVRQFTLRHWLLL
T1 sequence (Q63380 1-617): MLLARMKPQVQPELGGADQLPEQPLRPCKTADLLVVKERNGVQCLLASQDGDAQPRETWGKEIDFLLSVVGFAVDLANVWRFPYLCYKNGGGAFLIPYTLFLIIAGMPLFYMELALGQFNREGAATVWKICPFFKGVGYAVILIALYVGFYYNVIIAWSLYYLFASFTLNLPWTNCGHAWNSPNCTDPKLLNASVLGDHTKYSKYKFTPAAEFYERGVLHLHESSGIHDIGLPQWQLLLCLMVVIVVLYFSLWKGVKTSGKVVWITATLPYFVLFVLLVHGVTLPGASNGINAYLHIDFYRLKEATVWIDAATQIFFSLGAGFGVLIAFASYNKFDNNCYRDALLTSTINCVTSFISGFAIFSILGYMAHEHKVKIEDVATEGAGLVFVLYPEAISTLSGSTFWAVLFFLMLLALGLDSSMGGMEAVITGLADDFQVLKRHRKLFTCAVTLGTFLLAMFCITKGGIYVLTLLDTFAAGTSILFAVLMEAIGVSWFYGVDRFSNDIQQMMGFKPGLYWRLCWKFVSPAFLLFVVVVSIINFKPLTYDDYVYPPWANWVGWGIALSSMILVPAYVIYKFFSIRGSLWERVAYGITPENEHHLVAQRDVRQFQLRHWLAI

Regarding `CCCN(C(=O)CCC1CCN(C)CC1)c1ccc(Cl)c(Cl)c1` [N-(3,4-Dichloro-phenyl)-3-(1-methyl-piperidin-4-yl)-N-propyl-propionamide], the figures for the half-inhibitory concentration (IC50) in assay [1], in assay [2] and in assay [3] were 1 nM, 820 nM and 10 nM, respectively.

In the case of `CCCN(C(=O)CCC1CCNCC1)c1ccc(Cl)c(Cl)c1` [N-(3,4-Dichloro-phenyl)-3-piperidin-4-yl-N-propyl-propionamide], the figures for the half-inhibitory concentration (IC50) in assay [1] (setting [4]), in assay [2] and in assay [3] (setting [5]) were 1.9 nM, 1400 nM and 9.8 nM, respectively.

For `CCN(C(=O)CCC1CCN(C)CC1)c1ccc(Cl)c(Cl)c1` [N-(3,4-Dichloro-phenyl)-N-ethyl-3-(1-methyl-piperidin-4-yl)-propionamide], the concentration for half-maximal inhibition (IC50) is 6.5 nM in assay [1] (setting [4]), more than 1000 nM in assay [2] and 6.3 nM in assay [3] (setting [5]).

With `CCN(C(=O)CCC1CCNCC1)c1ccc(Cl)c(Cl)c1` [N-(3,4-Dichloro-phenyl)-N-ethyl-3-piperidin-4-yl-propionamide], the IC50 amounted to 11 nM in assay [1] (setting [4]), 2100 nM in assay [2] and 11 nM in assay [3] (setting [5]).

Take `CN1CCC(CCC(=O)N(C)c2ccc(Cl)c(Cl)c2)CC1` [N-(3,4-Dichloro-phenyl)-N-methyl-3-(1-methyl-piperidin-4-yl)-propionamide]: the IC50 in assay [1] (setting [4]) is 87 nM; in assay [2] it was more than 1000 nM; in assay [3] (setting [5]) it was 330 nM.

With `CN(C(=O)CCC1CCNCC1)c1ccc(Cl)c(Cl)c1` [N-(3,4-Dichloro-phenyl)-N-methyl-3-piperidin-4-yl-propionamide], the results for the IC50 in assay [1] (setting [4]), in assay [2] and in assay [3] (setting [5]) were 770 nM, more than 1000 nM and 220 nM, respectively.

Turning to `CCN(C(=O)CCC1CCN(C)CC1)c1ccc(Br)c(Cl)c1` [N-(4-Bromo-3-chloro-phenyl)-N-ethyl-3-(1-methyl-piperidin-4-yl)-propionamide], the IC50 in assay [1] (setting [4]) was 1.3 nM; in assay [2], more than 1000 nM; in assay [3] (setting [5]), 6.8 nM.

As for `CCN(C(=O)CCC1CCNCC1)c1ccc(Br)c(Cl)c1` [N-(4-Bromo-3-chloro-phenyl)-N-ethyl-3-piperidin-4-yl-propionamide], the 50% inhibitory concentration (IC50) in assay [1] (setting [4]) is 2.6 nM; in assay [2] it was more than 1000 nM; in assay [3] (setting [5]) it was 3.1 nM.
